Experimental data reported in patent publication US20230146455A1, “TREATMENT OF INFLAMMATORY DISEASES WITH PEPTIDES AND PHARMACEUTICAL COMPOSITIONS” (Yuyu Pharma, Inc., priority 2020, published 2023).
Where “and” joins values, the source holds several entries; their conditions need not be identical. Equal values may be shown once. Where a SMILES comes first, the peptide text is derived from it. [ ]: non-standard residue; d: D form. Hyp = O=C(O)[C@@H]1C[C@@H](O)CN1

Test system: CCL20/MIP-3 alpha
Experiment: Example 9 Luminex, LPS hPBMCs: CCL20/MIP-3 alpha
Assay type: cell-based, human
Procedure: Treatment Human PBMCs were pretreated with YY-101, YDE-011 and YDE-043 or reference compound; Xiidra® at various concentration (ranging from 1 nM to 100 uM) for 2 h before stimulation. An equal volume of 0.5% DMSO was used as a vehicle control. Then, the cells were treated with LPS at 5 ug/ml. The supernatants from treated cells were harvested at 24 h and placed in a 96 well for Luminex cytokine & chemokine profiling using a Luminex 200 multiplex assay (Luminex; R&D system, USA).
The main study arm with triplicate wells per group in a 24-well plate: • 1. Blank • 2. PBMC: 0.5% DMSO • 3. PBMC+LPS (5 ug/ml) • 4. PBMC+YY-101 100 uM • 5. PBMC+YY-101 10 uM • 6. PBMC+YY-101 1 uM • 7. PBMC+YY-101 0.1 uM • 8. PBMC+YY-101 0.01 uM • 9. PBMC+LPS (5 ug/ml)+Xiidra®100 uM • 10. PBMC+LPS (5 ug/ml)+Xiidra® 10 uM • 11. PBMC+LPS (5 ug/ml)+Xiidra® 1 uM • 12. PBMC+LPS (5 ug/ml)+Xiidra®0.1 uM • 13. PBMC+LPS (5 ug/ml)+Xiidra®0.01 uM • 14. PBMC+LPS (5 ug/ml)+Xiidra®0.001 uM • 15. PBMC+LPS (5 ug/ml)+YY-101 100 uM • 16. PBMC+LPS (5 ug/ml)+YY-101 10 uM • 17. PBMC+LPS (5 ug/ml)+YY-101 1 uM • 18. PBMC+LPS (5 ug/ml)+YY-101 0.1 uM • 19. PBMC+LPS (5 ug/ml)+YY-101 0.01 uM • 20. PBMC+LPS (5 ug/ml)+YY-101 0.001 uM • 21. PBMC+LPS (5 ug/ml)+YDE-011 100 uM • 22. PBMC+LPS (5 ug/ml)+YDE-011 10 uM • 23. PBMC+LPS (5 ug/ml)+YDE-011 1 uM • 24. PBMC+LPS (5 ug/ml)+YDE-011 0.1 uM • 25. PBMC+LPS (5 ug/ml)+YDE-011 0.01 uM • 26. PBMC+LPS (5 ug/ml)+YDE-011 0.001 uM • 27. PBMC+LPS (5 ug/ml)+YDE-043 100 uM • 28. PBMC+LPS (5 ug/ml)+YDE-043 10 uM • 29. PBMC+LPS (5 ug/ml)+YDE-043 1 uM • 30. PBMC+LPS (5 ug/ml)+YDE-043 0.1 uM • 31. PBMC+LPS (5 ug/ml)+YDE-043 0.01 uM • 32. PBMC+LPS (5 ug/ml)+YDE-043 0.001 uM
Multiplex assay was used to measure 30 cytokines and chemokines. The 1:2, 1:10 and 1:200 diluted cell supernatant and serial dilution of the standard were dispensed into a 96 well plate at 50 ul/well. Then, the pre-mixed cocktail of antibody-coated magnetic beads was dispensed at 50 ul/well and incubated at room temperature for 2 h in a horizontal orbital microplate shaker at 800±500 rpm. The beads were washed using a magnetic device to prevent loss. The biotin-antibody was dispensed in 50 ul of each well and incubated at room temperature for 1 h in a shaker at 800±500 rpm. After washing, streptavidin-PE was added at 50 ul/well and incubated at room temperature for 30 min in a shaker under the same conditions. Finally, after washing, wash buffer (100 ul/well) was added to the plate and incubated in a shaker for 2 min. The Luminex™ 200 setting were set according to the manufacturer's protocol. The data was calculated with a standard five-parameter logistic nonlinear regression analysis of the data (xPonent software 4.2, USA). The levels of cytokine/chemokine are normalized to the live cell counts (1×10^5 cells/mL) and presented as concentrations per mL (pg/mL or ng/mL).

[1] = PBMC + LPS(5 ug/ml) + test article 0.001 uM, Mean
[2] = PBMC + LPS(5 ug/ml) + test article 0.001 uM, individual replicate
[3] = PBMC + LPS(5 ug/ml) + test article 0.01 uM, Mean
[4] = PBMC + LPS(5 ug/ml) + test article 0.01 uM, individual replicate
[5] = PBMC + LPS(5 ug/ml) + test article 0.1 uM, Mean
[6] = PBMC + LPS(5 ug/ml) + test article 0.1 uM, individual replicate
[7] = PBMC + LPS(5 ug/ml) + test article 1 uM, Mean
[8] = PBMC + LPS(5 ug/ml) + test article 1 uM, individual replicate
[9] = PBMC + LPS(5 ug/ml) + test article 10 uM, Mean
[10] = PBMC + LPS(5 ug/ml) + test article 10 uM, individual replicate
[11] = PBMC + LPS(5 ug/ml) + test article 100 uM, Mean
[12] = PBMC + LPS(5 ug/ml) + test article 100 uM, individual replicate

| SMILES | Concentration, CCL20/MIP-3 alpha [1] [pg/mL] | MFI, CCL20/MIP-3 alpha [1] | conc/live cell, CCL20/MIP-3 alpha [1] [pg/10^5] | Concentration, CCL20/MIP-3 alpha [2] | MFI, CCL20/MIP-3 alpha [2] | conc/live cell, CCL20/MIP-3 alpha [2] | Concentration, CCL20/MIP-3 alpha [3] [pg/mL] | MFI, CCL20/MIP-3 alpha [3] | conc/live cell, CCL20/MIP-3 alpha [3] [pg/10^5] | Concentration, CCL20/MIP-3 alpha [4] | MFI, CCL20/MIP-3 alpha [4] | conc/live cell, CCL20/MIP-3 alpha [4] | Concentration, CCL20/MIP-3 alpha [5] [pg/mL] | MFI, CCL20/MIP-3 alpha [5] | conc/live cell, CCL20/MIP-3 alpha [5] [pg/10^5] | Concentration, CCL20/MIP-3 alpha [6] | MFI, CCL20/MIP-3 alpha [6] | conc/live cell, CCL20/MIP-3 alpha [6] | Concentration, CCL20/MIP-3 alpha [7] [pg/mL] | MFI, CCL20/MIP-3 alpha [7] | other results |
| --- | --- | --- | --- | --- | --- | --- | --- | --- | --- | --- | --- | --- | --- | --- | --- | --- | --- | --- | --- | --- | --- |
| CC(C)C[C@H](NC(=O)CNC(=O)[C@H](CC(C)C)NC(=O)[C@H](CCC(N)=O)NC(=O)CNC(=O)[C@@H]1C[C@@H](O)CN1)C(=O)N[C@@H](C)C(=O)NCC(=O)N1CCC[C@H]1C(=O)N[C@@H](CCCCN)C(=O)O [YDE-011] (H-[Hyp]GQLGLAGPK-OH) | 246.5 | 263.3 | 46.9 | 264.2 pg/mL and 223.2 pg/mL and 252.1 pg/mL | 284.5 and 235.5 and 270.0 | 58.7 pg/10^5 and 38.5 pg/10^5 and 43.5 pg/10^5 | 255.6 | 274.2 | 44.2 | 233.3 pg/mL and 258.8 pg/mL and 274.6 pg/mL | 247.5 and 278.0 and 297.0 | 37.0 pg/10^5 and 41.7 pg/10^5 and 53.8 pg/10^5 | 239.4 | 254.8 | 42.0 | 238.3 pg/mL and 231.6 pg/mL and 248.4 pg/mL | 253.5 and 245.5 and 265.5 | 36.1 pg/10^5 and 46.3 pg/10^5 and 43.6 pg/10^5 | 211.3 | 221.5 | conc/live cell, CCL20/MIP-3 alpha [7]: 42.2 pg/10^5; Concentration, CCL20/MIP-3 alpha [8]: 203.6 pg/mL and 208.7 pg/mL and 221.5 pg/mL; MFI, CCL20/MIP-3 alpha [8]: 212.5 and 218.5 and 233.5; conc/live cell, CCL20/MIP-3 alpha [8]: 37.0 pg/10^5 and 43.5 pg/10^5 and 46.1 pg/10^5; Concentration, CCL20/MIP-3 alpha [9]: 230.3 pg/mL; MFI, CCL20/MIP-3 alpha [9]: 244.0; conc/live cell, CCL20/MIP-3 alpha [9]: 43.9 pg/10^5; Concentration, CCL20/MIP-3 alpha [10]: 234.1 pg/mL and 222.3 pg/mL and 234.5 pg/mL; MFI, CCL20/MIP-3 alpha [10]: 248.5 and 234.5 and 249.0; conc/live cell, CCL20/MIP-3 alpha [10]: 43.4 pg/10^5 and 38.3 pg/10^5 and 49.9 pg/10^5; Concentration, CCL20/MIP-3 alpha [11]: 323.4 pg/mL; MFI, CCL20/MIP-3 alpha [11]: 356.5; conc/live cell, CCL20/MIP-3 alpha [11]: 53.3 pg/10^5; Concentration, CCL20/MIP-3 alpha [12]: 342.2 pg/mL and 319.4 pg/mL and 308.7 pg/mL; MFI, CCL20/MIP-3 alpha [12]: 379.5 and 351.5 and 338.5; conc/live cell, CCL20/MIP-3 alpha [12]: 56.1 pg/10^5 and 52.4 pg/10^5 and 51.5 pg/10^5 |
| CC(C)C[C@H](NC(=O)[C@H](CCC(N)=O)NC(=O)CNC(=O)[C@@H]1C[C@@H](O)CN1)C(=O)NCC(=O)O [YDE-043] (H-[Hyp]GQLG-OH; N-terminus and C-terminus assumed) | 222.1 | 234.3 | 45.5 | 237.5 pg/mL and 214.3 pg/mL and 214.7 pg/mL | 252.5 and 225.0 and 225.5 | 54.0 pg/10^5 and 35.7 pg/10^5 and 46.7 pg/10^5 | 257.4 | 276.3 | 49.7 | 272.1 pg/mL and 235.8 pg/mL and 264.2 pg/mL | 294.0 and 250.5 and 284.5 | 60.5 pg/10^5 and 35.7 pg/10^5 and 52.8 pg/10^5 | 269.5 | 290.8 | 50.0 | 269.6 pg/mL and 266.7 pg/mL and 272.1 pg/mL | 291.0 and 287.5 and 294.0 | 53.9 pg/10^5 and 47.6 pg/10^5 and 48.6 pg/10^5 | 257.7 | 276.7 | conc/live cell, CCL20/MIP-3 alpha [7]: 48.8 pg/10^5; Concentration, CCL20/MIP-3 alpha [8]: 267.1 pg/mL and 251.7 pg/mL and 254.2 pg/mL; MFI, CCL20/MIP-3 alpha [8]: 288.0 and 269.5 and 272.5; conc/live cell, CCL20/MIP-3 alpha [8]: 46.1 pg/10^5 and 52.4 pg/10^5 and 48.0 pg/10^5; Concentration, CCL20/MIP-3 alpha [9]: 267.8 pg/mL; MFI, CCL20/MIP-3 alpha [9]: 288.8; conc/live cell, CCL20/MIP-3 alpha [9]: 49.6 pg/10^5; Concentration, CCL20/MIP-3 alpha [10]: 260.1 pg/mL and 260.9 pg/mL and 282.4 pg/mL; MFI, CCL20/MIP-3 alpha [10]: 279.5 and 280.5 and 306.5; conc/live cell, CCL20/MIP-3 alpha [10]: 50.0 pg/10^5 and 48.3 pg/10^5 and 50.4 pg/10^5; Concentration, CCL20/MIP-3 alpha [11]: 358.3 pg/mL; MFI, CCL20/MIP-3 alpha [11]: 399.5; conc/live cell, CCL20/MIP-3 alpha [11]: 56.9 pg/10^5; Concentration, CCL20/MIP-3 alpha [12]: 381.7 pg/mL and 334.8 pg/mL; MFI, CCL20/MIP-3 alpha [12]: 428.5 and 370.5; conc/live cell, CCL20/MIP-3 alpha [12]: 61.6 pg/10^5 and 52.3 pg/10^5 |
